According to patent publication US20190085024A1, “Alpha-Ketoamide Inhibitors Of Cysteine Proteases” (Phelix Therapeutics, priority 2017, published 2019):
*1 amine or outer side, *2 acyl side, *3 side chain or, on linkers, in order; H or OH if unused. Where a SMILES comes first, the peptide text is derived from it. [ ]: non-standard residue; d: D form. The star is where a group is joined. ξ: configuration not given here. ξβ3hPhe(2-oxo) = O=C(C(=O)[*:2])C(Cc1ccccc1)N[*:1]; ξ3Amino2oxobutanoyl = CC(N[*:1])C(=O)C(=O)[*:2]; 2Nal = N[CH](Cc1ccc2ccccc2c1)C(=O)O; Cbz = O=C(OCc1ccccc1)*

Tests used:
[1] = target: Calpain; assay: Calpain enzyme assay; type: biochemical; settings: Ki by Morrison equation; pH 7.5, 5 mM CaCl2
[2] = target: Cathepsin B (Homo sapiens, UniProt P07858); assay: Cathepsin B enzyme assay; settings: Cat B (μM), Ki by Morrison equation; pH 6.0, substrate Z-Phe-Arg-Amc
[3] = target: Cathepsin L (Homo sapiens, UniProt P07711); assay: Cathepsin L enzyme assay; type: biochemical; settings: Ki by Morrison equation; pH 5.5, substrate Z-Phe-Arg-Amc; read-out: Cat L
Text: Two wells contained DMSO only for controls.
Velocity was converted to μM/sec.

[4] = test system: MERS WT; assay: microbe, parasite or virus in culture; type: cell-based; settings: Middle East respiratory syndrome-related coronavirus, read-out: MERS WT (μM)

Chain of Cathepsin L (P07711 114-333, species assumed): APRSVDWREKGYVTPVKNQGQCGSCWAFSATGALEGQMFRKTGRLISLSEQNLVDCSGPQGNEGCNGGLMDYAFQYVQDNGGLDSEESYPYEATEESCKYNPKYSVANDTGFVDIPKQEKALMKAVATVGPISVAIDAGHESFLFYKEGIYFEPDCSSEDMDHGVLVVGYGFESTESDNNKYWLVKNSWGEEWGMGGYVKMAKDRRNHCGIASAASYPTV

Structure (SMILES)	Ki [1] [nM]	Ki [2] [µM]	Ki [3] [nM]	IC50 [4] [µM]
CCC(C)C(NC(=O)C(=O)C(C)NC(=O)C(Cc1ccccc1)NC(=O)Cc1ccc(-c2ccccc2)cc1)C(=O)NC(C)(C)C(=O)O (stereo not drawn) [PHELIX159, 15-([1,1′-biphenyl]-4-yl)-12-benzyl-5-(sec-butyl)-2,2,9-trimethyl-4,7,8,11,14-pentaoxo-3,6,10,13-tetraazapentadecanoic acid]	16600	0.0414	2450	
C=CCOC(=O)NCCCCC(NC(=O)C(=O)C(NC(=O)C(CC(C)C)NC(=O)C(Cc1ccccc1)NC(=O)OCc1ccccc1)C(C)CC)C(N)=O (stereo not drawn) [PHELIX269, benzyl (15-(sec-butyl)-11-carbamoyl-18-isobutyl-5,13,14,17,20-pentaoxo-22-phenyl-4-oxa-6,12,16,19-tetraazadocos-1-en-21-yl)carbamate]	4.34	0.763	4.13	> 30
CC(NC(=O)C(Cc1ccccc1)NC(=O)Cc1ccccc1)C(=O)C(=O)NC(Cc1ccc(C(F)(F)F)cc1)C(=O)NC(Cc1ccc(-c2ccccc2)cc1)C(N)=O (stereo not drawn) [PHELIX261, N-(1-((3-([1,1′-biphenyl]-4-yl)-1-amino-1-oxopropan-2-yl)amino)-1-oxo-3-(4-(trifluoromethyl)phenyl)propan-2-yl)-2-oxo-3-(3-phenyl-2-(2-phenylacetamido)propanamido)butanamide]	> 10000	> 10	2.48	2.56
CC(NC(=O)C(Cc1ccccc1)NC(=O)Cc1ccccc1)C(=O)C(=O)NC(CC1CC1)C(=O)NC(Cc1ccc(-c2ccccc2)cc1)C(N)=O (stereo not drawn) [PHELIX260, N-(1-((3-([1,1′-biphenyl]-4-yl)-1-amino-1-oxopropan-2-yl)amino)-3-cyclopropyl-1-oxopropan-2-yl)-2-oxo-3-(3-phenyl-2-(2-phenylacetamido)propanamido)butanamide]	> 10000	0.0178	0.27	1.81
CC(C)CC(NC(=O)OCc1ccccc1)C(=O)NC(Cc1ccccc1)C(=O)C(=O)NC(C)C(=O)NC(CCC(=O)O)C(=O)NC(CCCNC(=N)N)C(N)=O (stereo not drawn) [PHELIX252, 15-((1-amino-5-guanidino-1-oxopentan-2-yl)carbamoyl)-8-benzyl-5-isobutyl-12-methyl-3,6,9,10,13-pentaoxo-1-phenyl-2-oxa-4,7,11,14-tetraazaoctadecan-18-oic acid] (Cbz-L[ξβ3hPhe(2-oxo)]AER-NH2; configuration not given here)	17	> 10	5.03	> 30
CCC(C)C(NC(=O)C(CC(C)C)NC(=O)OCc1ccccc1)C(=O)C(=O)NC(CCCNC(N)=O)C(=O)NC(Cc1ccc2ccccc2c1)C(N)=O (stereo not drawn) [PHELIX315, benzyl (1-((1-((1-((1-amino-3-(naphthalen-2-yl)-1-oxopropan-2-yl)amino)-1-oxo-5-ureidopentan-2-yl)amino)-4-methyl-1,2-dioxohexan-3-yl)amino)-4-methyl-1-oxopentan-2-yl)carbamate]	1.48	> 10	0.47	
CC[C@H](C)[C@H](NC(=O)C(=O)C(C)(C)NC(=O)[C@H](Cc1ccccc1)NC(=O)Cc1ccccc1)C(=O)NC(C)(C)C(=O)O [PHELIX160, 12-benzyl-5-(sec-butyl)-2,2,9,9-tetramethyl-4,7,8,11,14-pentaoxo-15-phenyl-3,6,10,13-tetraazapentadecanoic acid]	51000	111	63400	
CC[C@H](C)[C@H](NC(=O)C(=O)C(Cc1ccccc1)NC(=O)C(Cc1ccccc1)NC(=O)Cc1ccccc1)C(=O)N1CCC[C@H]1C(=O)O (stereo partly drawn) [PHELIX156, (2-oxo-4-phenyl-3-(3-phenyl-2-(2-phenylacetamido)propanamido)butanoyl)isoleucylproline]	9850	0.0102	1.58	
CCC(C)C(NC(=O)C(=O)C(C)NC(=O)CCNC(=O)OCc1ccccc1)C(=O)NC(C)(C)C(=O)O (stereo not drawn) [PHELIX164, 13-(sec-butyl)-9,16,16-trimethyl-3,7,10,11,14-pentaoxo-1-phenyl-2-oxa-4,8,12,15-tetraazaheptadecan-17-oic acid]	> 100000	34.6	> 1000	
CCC(C)C(NC(=O)C(=O)C(C)NC(=O)[C@H](Cc1cncs1)NC(=O)Cc1ccccc1)C(=O)NC(C)(C)C(=O)O (stereo partly drawn) [PHELIX173, (12S)-5-(sec-butyl)-2,2,9-trimethyl-4,7,8,11,14-pentaoxo-15-phenyl-12-(thiazol-5-ylmethyl)-3,6,10,13-tetraazapentadecanoic acid]	> 100000	0.72	3330	
CCC(C)C(NC(=O)C(=O)C(C)NC(=O)C(CC(C)C)NC(=O)Cc1ccccc1)C(=O)NC(C)(C)C(=O)O (stereo not drawn) [PHELIX171, 5-(sec-butyl)-12-isobutyl-2,2,9-trimethyl-4,7,8,11,14-pentaoxo-15-phenyl-3,6,10,13-tetraazapentadecanoic acid]	3900	0.56	632	
CC(NC(=O)C(Cc1ccccc1)NC(=O)Cc1ccccc1)C(=O)C(=O)NC(Cc1ccccc1)C(=O)NC(C)(C)C(=O)O (stereo not drawn) [PHELIX157, 5,12-dibenzyl-2,2,9-trimethyl-4,7,8,11,14-pentaoxo-15-phenyl-3,6,10,13-tetraazapentadecanoic acid]	34600	0.0028	56.2	
CCCC(NC(=O)C(=O)C(C)NC(=O)C(Cc1ccccc1)NC(=O)Cc1ccccc1)C(=O)NC(C)(C)C(N)=O (stereo not drawn) [PHELIX243, N-(1-amino-2-methyl-1-oxopropan-2-yl)-2-(2-oxo-3-(3-phenyl-2-(2-phenylacetamido)propanamido)butanamido)pentanamide]	> 10000	> 10	5580	
CC(NC(=O)C(Cc1ccccc1)NC(=O)Cc1ccccc1)C(=O)C(=O)NC(Cc1ccc(F)cc1)C(=O)NC(Cc1ccc(-c2ccccc2)cc1)C(N)=O (stereo not drawn) [PHELIX262]	> 10000	0.435	0.04	
CCC(C)C(NC(=O)C(=O)C(Cc1ccccc1)NC(=O)C(Cc1ccccc1)NC(=O)Cc1ccccc1)C(=O)NC(C)(C)C(=O)O (stereo not drawn) [PHELIX150, 9,12-dibenzyl-5-(sec-butyl)-2,2-dimethyl-4,7,8,11,14-pentaoxo-15-phenyl-3,6,10,13-tetraazapentadecanoic acid]	5110	0.0303	39.2	
CC(C)CC(NC(=O)C(Cc1ccccc1)NC(=O)OCc1ccccc1)C(=O)NC(C)C(=O)C(=O)NCC(=O)NC(Cc1ccc2ccccc2c1)C(N)=O (stereo not drawn) [PHELIX258, benzyl (1-amino-12-isobutyl-9-methyl-2-(naphthalen-2-ylmethyl)-1,4,7,8,11,14-hexaoxo-16-phenyl-3,6,10,13-tetraazahexadecan-15-yl)carbamate] (Cbz-FL[ξ3Amino2oxobutanoyl]G[2Nal]-NH2; configuration not given here)	1.9	0.42	6.14	
CCC(C)C(NC(=O)C(=O)C(C)NC(=O)C(Cc1cccc(C(F)(F)F)c1)NC(=O)Cc1ccccc1)C(=O)NC(C)(C)C(=O)O (stereo not drawn) [PHELIX170, 5-(sec-butyl)-2,2,9-trimethyl-4,7,8,11,14-pentaoxo-15-phenyl-12-(3-(trifluoro-methyl)benzyl)-3,6,10,13-tetraazapentadecanoic acid]	59700	0.022	1190	
CC(NC(=O)C(Cc1ccccc1)NC(=O)Cc1ccccc1)C(=O)C(=O)NC(CC1CC1)C(=O)NC(C)(C)C(=O)O (stereo not drawn) [PHELIX166, 12-benzyl-5-(cyclopropylmethyl)-2,2,9-trimethyl-4,7,8,11,14-pentaoxo-15-phenyl-3,6,10,13-tetraazapentadecanoic acid]	> 100000	0.0081	586	
CC(NC(=O)C(Cc1ccccc1)NC(=O)Cc1ccccc1)C(=O)C(=O)NC(Cc1cccc2ccccc12)C(=O)NC(C)(C)C(=O)O (stereo not drawn) [PHELIX162, 12-benzyl-2,2,9-trimethyl-5-(naphthalen-1-ylmethyl)-4,7,8,11,14-pentaoxo-15-phenyl-3,6,10,13-tetraazapentadecanoic acid]		0.03	402	
CCC(C)C(NC(=O)C(=O)C(C)NC(=O)C(Cc1ccccc1)NC(=O)Cc1ccccc1)C(=O)NC(C)(C)C(=O)O (stereo not drawn) [PHELIX149, 12-benzyl-5-(sec-butyl)-2,2,9-trimethyl-4,7,8,11,14-pentaoxo-15-phenyl-3,6,10,13-tetraazapentadecanoic acid]	> 100000	0.0318	816	
CCC(C)C(NC(=O)C(=O)C(C)NC(=O)C(Cc1cccc(C#N)c1)NC(=O)Cc1ccccc1)C(=O)NC(C)(C)C(=O)O (stereo not drawn) [PHELIX176, 5-(sec-butyl)-12-(3-cyanobenzyl)-2,2,9-trimethyl-4,7,8,11,14-pentaoxo-15-phenyl-3,6,10,13-tetraazapentadecanoic acid]		0.0378	2690	
CCC(C)C(NC(=O)C(=O)C(C)NC(=O)C(Cc1ccccc1)NC(=O)Cc1ccc2ccccc2c1)C(=O)NC(C)(C)C(=O)O (stereo not drawn) [PHELIX161, 12-benzyl-5-(sec-butyl)-2,2,9-trimethyl-15-(naphthalen-2-yl)-4,7,8,11,14-pentaoxo-3,6,10,13-tetraazapentadecanoic acid]		0.0549	1990	
CC[C@H](C)[C@H](NC(=O)C(=O)C(C)NC(=O)C(Cc1ccccc1)NC(=O)Cc1ccccc1)C(=O)N1CCC[C@H]1C(=O)O (stereo partly drawn) [PHELIX155, (2-oxo-3-(3-phenyl-2-(2-phenylacetamido)propanamido)butanoyl)isoleucylproline]		0.0215	300	
